Results on 7 molecules are retold here after patent US11440906B2, “Biguanide derivatives and their rearrangement products for use in the treatment of cancer” (CENTRE NATIONAL DE LA RECHERCHE SCIENTIFIQUE, priority 2017, dated 2022).

One experiment concerns A375 Sensitive cells. The experiment is described as follows: Viability test, trypan blue exclusion, A375 Sensitive cells. It counts as cell-based, human. Particulars: Homo sapiens, A-375, viable cells as percentage of DMSO control. Summed up:
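A375 (B-Raf, CDKN2A, PTEN mutant) cells were exposed to compounds at 5.0 or 10 μM for 24 or 48 hr; CRO15 also at 0.5–50 μM for 48 hr or 5 μM for 2–48 hr; DMSO control. Viable cells were counted by trypan blue exclusion, as % of control. Three experiments in triplicate.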

Experiment [1] has as its system A375 resistant melanoma cells. The experiment is described as follows: In vivo murine cancer model, A375 resistant xenograft. Also on record: species or system BALB/c nu/nu (nude) mice. Particulars: 0.7 mg/mouse/day intraperitoneal. On the procedure: Animal experiments were carried out in accordance with the Declaration of Helsinki and were approved by a local ethical committee CIEPAL (Comité Institutionnel d'Ethique Pour l'Animal de Laboratoire-Azur). Female immune-deficient BALB/c nu/nu (nude) mice were obtained at 5 weeks of age from Envigo Laboratory (Gannat, France). Nude mice were inoculated subcutaneously with A375 sensitive or resistant melanoma cells (1.0×10^6 cells/mouse). After tumor apparition (±5 days), animals received intraperitoneal injection of Labrafil (Control), PLX4032 (0.7 mg/mouse/day) or CRO15 (0.7 mg/mouse/day) dissolved in Labrafil. The growth tumor curves were determined by measuring the tumor volume using the equation V=(L*W2)/2 (V=tumor volume, W=tumor width, L=tumor length). At the end of the experiment, mice were euthanized by cervical dislocation and tumors were taken for western blot and immunofluorescence experiments (LC3, Cleaved Caspase 3). TUNEL assay was performed using the In Situ Cell Death Detection Kit (Roche, Meylan, France). The results are shown in FIGS. 3A and 3B (A375 sensitive melanoma cells), and 4B and 4C (A375 resistant melanoma cells).
In Vivo Murine Cancer Model Animal experiments were carried out in accordance with the Declaration of Helsinki and were approved by a local ethical committee CIEPAL (Comite Institutionnel d'Ethique Pour l'Animal de Laboratoire-Azur). Female immune-deficient BALB/c nu/nu (nude) mice were obtained at 5 weeks of age from Envigo Laboratory (Gannat, France). Nude mice were inoculated subcutaneously with A375 resistant melanoma cells (1.0×10^6 cells/mouse). After tumor apparition (+5 days), animals received intraperitoneal injection of Labrafil (Control), PLX4032 (0.7 mg/mouse/day) or MTF319 (0.7 mg/mouse/day) dissolved in Labrafil. The growth tumor curves were determined by measuring the tumor volume using the equation V=(L*W2)/2 (V=tumor volume, W=tumor width, L=tumor length). At the end of the experiment, mice were euthanized by cervical dislocation.

The next experiment has as its system melanoma cells. Particulars: literature, read-out: IC50 to induce cell death; cited from earlier work.
[2] abbreviates: 24 h, read-out: Viab A375 5 μM/ 24 h.
[3] abbreviates: 48 h, read-out: Viab A375 5 μM/ 48 h.
[4] abbreviates: 24 h, read-out: Viab A375 10 μM/ 24 h.
Where [5] appears, read: 48 h, read-out: Viab A375 10 μM/ 48 h.

Where two headings read alike, the source gives them in different places.

With `CCOc1cccc(-c2nc(N)nc(Nc3ccccc3SSc3ccccc3Nc3nc(N)nc(-c4cccc(OCC)c4)n3)n2)c1` [MTF 319, N2,N2′-(disulfanediylbis(2,1-phenylene))bis(6-(3-ethoxyphenyl)-1,3,5-triazine-2,4-diamine)], the viability at 5 µM in the experiment with A375 Sensitive cells (setting [2]) turned out to be 8.6%; in the experiment with A375 Sensitive cells (setting [3]) it was 3.1%. The viability at 10 µM in the experiment on A375 Sensitive cells (setting [4]) was found to be 8.6%; with A375 Sensitive cells (setting [5]), 0.6%. In addition, the tumor volume result in experiment [1] (FIG. 4B, 6A) was “decrease in tumor volume”. Further, the tumor weight entry in experiment [1] (FIG. 4C, 6B) was “had an effect on the tumor growth”.
Consider `CN(C)C(=N)N=C(N)N` [metformin], for which the IC50 (as a rule, the point on the concentration scale where inhibition reaches its midpoint) in the experiment on melanoma cells is 10 mM.
`Nc1nc(Cc2ccccc2)nc(Nc2ccccc2SSc2ccccc2Nc2nc(N)nc(Cc3ccccc3)n2)n1` [MTF 333]: the viability at 5 µM in the experiment with A375 Sensitive cells (setting [2]) was determined as 94.9%; in the experiment with A375 Sensitive cells (setting [3]) it was 35.4%. In addition, the values for the viability at 10 µM in the experiment with A375 Sensitive cells (setting [4]) and in the experiment with A375 Sensitive cells (setting [5]) were 28.7% and 24.1%, respectively.
The corresponding values for `CCOc1cccc(C(=N)NC(=N)Nc2nc3ccccc3s2)c1` [MTF 344, N—(N-(benzo[d]thiazol-2-yl)carbamimidoyl)-3-ethoxybenzimidamide] are 84.3%, 26.1%, 38.7% and 26.1%.
Taken in the same sequence, the figures for `Nc1nc(Nc2ccccc2SSc2ccccc2Nc2nc(N)nc(-c3ccc(Cl)cc3)n2)nc(-c2ccc(Cl)cc2)n1` [MTF 327, N2,N2′-(disulfanediylbis(2,1-phenylene))bis(6-(4-chlorophenyl)-1,3,5-triazine-2,4-diamine)] were 19.4%, 14.5%, 23.7% and 14.5%.
Taken in the same sequence, the figures for `Cc1ccc(C(=N)NC(=N)Nc2nc3ccccc3s2)cc1` [MTF 246, N—(N-(benzo[d]thiazol-2-yl)carbamimidoyl)-4-methylbenzimidamide] were 137%, 91%, 94% and 115%.
Turning to `Cc1nc(NC(=N)NC(=N)c2ccccc2Br)sc1C` [MTF 295, 2-bromo-N—(N-(4,5-dimethylthiazol-2-yl)carbamimidoyl)benzimidamide], the viability at 5 µM in the experiment with A375 Sensitive cells (setting [2]) worked out at 109%; in the experiment with A375 Sensitive cells (setting [3]), 37.3%. The viability at 10 µM amounted to 66.1% in the experiment on A375 Sensitive cells (setting [4]) and 39.3% in the experiment on A375 Sensitive cells (setting [5]).
